Experimental data as given in US4950647A, “T cell immunopotentiator” (Nucleic Acid Research Institute, priority 1988, dated 1990).

Experiments:
[1] = Immune system enhancement / suppression; settings: β analog: at the same concentrations at which the compound is immunostimulatory
[2] = test system: human lymphocytes (peripheral blood mononuclear cells); settings: known; cited from earlier work
[3] = test system: B cells; settings: predominantly a subset of mature B lymphocytes; cited from earlier work
[4] = test system: macrophages and NK cells; settings: cited from earlier work

SMILES	immunosuppressive / immune enhancing effect [1]	activation of lymphocytes to proliferate [2]	stimulation of B cell proliferation [3]	activation of macrophages and NK cells [4]
Nc1cc2c(ncn2[C@H]2C[C@H](O)[C@@H](CO)O2)c(=O)[nH]1 [2'-deoxy-3-deazaguanosine]	immunosuppressive	–	–	–
Nc1cc2c(ncn2[C@@H]2O[C@H](CO)[C@@H](O)[C@H]2O)c(=O)[nH]1 [3-deazaguanosine]	not immune system enhancers	–	–	–
Nc1nc2c(ncn2[C@H]2C[C@H](O)[C@@H](CO)O2)c(=O)[nH]1 [2'-deoxyguanosine]	not immune system enhancers	–	–	–
Nc1nc2c(nc(S)n2[C@@H]2O[C@H](CO)[C@@H](O)[C@H]2O)c(=O)[nH]1 [8-mercaptoguanosine]	–	activate lymphocytes to proliferate	stimulate proliferation of B cells	–
Nc1nc2c(nc(Br)n2[C@@H]2O[C@H](CO)[C@@H](O)[C@H]2O)c(=O)[nH]1 [8-bromoguanosine]	–	activate lymphocytes to proliferate	stimulate proliferation of B cells	activate macrophages and NK cells
